The values below are quoted from earlier work in patent publication US20220378880A1, “PHARMACEUTICAL COMPOSITIONS OF GHRH ANALOGS AND USES THEREOF” (Theratechnologies Inc., priority 2019, published 2022).

Where [1] appears, read: healthy subjects, single SC 2 mg dose.

Structures are written as SMILES.

Regarding `CC/C=C/CC(=O)N[C@@H](Cc1ccc(O)cc1)C(=O)N[C@@H](C)C(=O)N[C@@H](CC(=O)O)C(=O)N[C@@H](C)C(=O)N[C@H](C(=O)N[C@@H](Cc1ccccc1)C(=O)N[C@H](C(=O)N[C@@H](CC(N)=O)C(=O)N[C@@H](CO)C(=O)N[C@@H](Cc1ccc(O)cc1)C(=O)N[C@@H](CCCNC(=N)N)C(=O)N[C@@H](CCCCN)C(=O)N[C@H](C(=O)N[C@@H](CC(C)C)C(=O)NCC(=O)N[C@@H](CCC(N)=O)C(=O)N[C@@H](CC(C)C)C(=O)N[C@@H](CO)C(=O)N[C@@H](C)C(=O)N[C@@H](CCCNC(=N)N)C(=O)N[C@@H](CCCCN)C(=O)N[C@@H](CC(C)C)C(=O)N[C@@H](CC(C)C)C(=O)N[C@@H](CCC(N)=O)C(=O)N[C@@H](CC(=O)O)C(=O)N[C@H](C(=O)N[C@@H](CCSC)C(=O)N[C@@H](CO)C(=O)N[C@@H](CCCNC(=N)N)C(=O)N[C@@H](CCC(N)=O)C(=O)N[C@@H](CCC(N)=O)C(=O)NCC(=O)N[C@@H](CCC(=O)O)C(=O)N[C@@H](CO)C(=O)N[C@@H](CC(N)=O)C(=O)N[C@@H](CCC(N)=O)C(=O)N[C@@H](CCC(=O)O)C(=O)N[C@@H](CCCNC(=N)N)C(=O)NCC(=O)N[C@@H](C)C(=O)N[C@@H](CCCNC(=N)N)C(=O)N[C@@H](C)C(=O)N[C@@H](CCCNC(=N)N)C(=O)N[C@@H](CC(C)C)C(N)=O)[C@@H](C)CC)C(C)C)[C@@H](C)O)[C@@H](C)CC` [tesamorelin, trans-3-hexenoyl-GHRH(1-44)-NH2], the Absolute bioavailability entry (healthy adult subjects, SC 2 mg dose) is “less than 4%”. Under setting [1], the “Extent of absorption, mean (CV)” value is given as 634.6 (72.4) pg·h/mL and the “Peak tesamorelin concentration (Cmax), mean (CV)” value is reported as 2874.6 (43.9) pg/mL. Moreover, under “single SC 2 mg dose”, the “Thalf (expected)” value is 0.4 h. Also, the “Tmax (expected)” value (single SC 2 mg dose, median) is 9 min.
